Consider 19 compounds from patent publication US9205085B2, “Tricyclic amino containing compounds for treatment or prevention of symptoms associated with endocrine dysfunction” (Emory University, priority 2011, dated 2015).

pEC50: −log10 of the molar value. Where “and” joins values, the source holds several entries; their conditions need not be identical. Equal values may be shown once.

Data set [1] concerns the target T1, SDF-1/CXCR4 (Homo sapiens (Human), UniProt P61073). Briefly: cAMP assay (SDF-1/CXCR4-mediated cAMP reduction). Format: cell-based. To be noted: for concentration effective in counteracting/blocking SDF-1 function: cAMP reduction by SDF-1; for effect of SDF-1 on cAMP reduction: pre-treatment with compound, SDF-1 EC80 150 ng/ml. As for the experimental part:
Because the major signaling pathway of CXCR4/SDF-1 involves the pertussis toxin-sensitive G protein Gi, compounds described herein were tested as to whether they inhibited SDF-1/CXCR4-mediated cAMP reduction. The absorption increase at 665 nm was determined by varying the concentration of SDF-1 (0-200 ng/ml) to determine EC80 to be 150 ng/ml.
On the technique in general: cAMP levels reflect the balance of adenylyl cyclase and phosphodiesterase activity.

Data set [2] addresses SDF-1 binding domain of CXCR4 (Homo sapiens (Human), UniProt P61073). Description: Competitive binding assay against biotin-labeled TN14003. To be noted: competition with biotin-labeled TN14003; read-out: Effective concentrations (EC50). The source says: Aa competitive binding assay using biotin-labeled TN14003 and streptavidin-conjugated rhodamine was developed to determine the binding efficiency of new chemical entities to the SDF-1 binding domain of CXCR4.

Data set [3] can be described thus: Initial pharmacokinetic study in mice. Type of data set: in vivo. The conditions noted are these: intraperitoneally (IP) and orally. The source says: (§1) Oral bioavailability and sustained plasma exposure was consistently observed in multiple species for certain compounds.
A short description of data set [4]: Pharmacokinetic study in rats. Type of data set: in vivo. To be noted: 10 mg/kg.
Description: as §1

The nature of data set [5]: Pharmacokinetic/pharmacodynamic study in cynomolgus monkeys. Format: in vivo.
Description: as §1

The nature of another data set: In vitro Ames test. Format: cell-based.
In the next data set the test system is CHO cells. Briefly: In vitro chromosome aberration screening test. Type of data set: cell-based. The conditions noted are these: any dose level up to 2 mM, 4 hour with S9, 20 hour without S9. Here is the method: (§2) Sufficiently scorable cells in the presence of S9 were available for 4 hour treatment and in the absence of S9 for a 20 hour treatment. Finally, MSX-122 was tested for its potential to interfere with the rapid delayed rectifier current (IKr) in human ventricles through the cardiac potassium channel, hERG since inhibition of IKr has been reported to be the most common cause of cardiac action potential prolongation by non-cardiac drugs.

A further data set has as its target hERG channel (Homo sapiens (Human), UniProt Q12809). Briefly: hERG channel current (IKr) inhibition. Format: biochemical. Here is the method:
as §2
For orientation: The hERG channel carries a current that helps repolarise heart muscle cells.

For another data set, the target named is hERG channel (IKr) (Homo sapiens (Human), UniProt Q12809). Briefly: hERG channel current (IKr) inhibition. Format: biochemical. The conditions noted are these: human; 1 μM; read-out: inhibition of hERG channel currents. Here is the method:
as §2

A short description of data set [6]: 28-day oral toxicology study in rats. Format: in vivo. The conditions noted are these: 250 and 600 mg/kg orally once per day for 28 days. As for the experimental part:
(§3) In initial studies, three groups of rats (5 males and 5 females per group) were dosed with 0, 250 and 600 mg/kg of MSX-122 orally once per day for 28 days. […] A 5-day repeat dose study was carried out in two non-naïve cynomolgus monkeys (1 male and 1 female) and two naïve cynomolgus monkeys (1 male and 1 female) dosed with 1,000 and 2,000 mg/kg, respectively, orally once per day for 5 days.

A short description of data set [7]: 5-day repeat dose study in cynomolgus monkeys. Type of data set: in vivo. As for the experimental part: as §3
The next data set concerns hot flashes. Briefly: Treatment of hot flashes in a patient. Format: in vivo, human. To be noted: person, 50 mg/day oral, after third treatment. As for the experimental part:
An approximately 70 kg person with a history of aggressive high grade serous carcinomy in their right fallopian tube, a complete hysterectomy and bilateral oophorectomy after previous treatments with VEGF-Trap and docetaxel, Carboplatin and taxol and doxil was treated with MSX-122, 50 mg/day oral.

Data set [8] concerns the target T1, SDF-1/CXCR4. Description: IC50 vs SDF-1 (table of specific compounds). Type of data set: binding.
[9] abbreviates: cynomolgus monkeys, oral 5 and 10 mg/kg.
The mark [10] stands for this setting: cynomolgus monkeys, 1,000 and 2,000 mg/kg orally once per day for 5 days.

T1 sequence (P61073 whole entry): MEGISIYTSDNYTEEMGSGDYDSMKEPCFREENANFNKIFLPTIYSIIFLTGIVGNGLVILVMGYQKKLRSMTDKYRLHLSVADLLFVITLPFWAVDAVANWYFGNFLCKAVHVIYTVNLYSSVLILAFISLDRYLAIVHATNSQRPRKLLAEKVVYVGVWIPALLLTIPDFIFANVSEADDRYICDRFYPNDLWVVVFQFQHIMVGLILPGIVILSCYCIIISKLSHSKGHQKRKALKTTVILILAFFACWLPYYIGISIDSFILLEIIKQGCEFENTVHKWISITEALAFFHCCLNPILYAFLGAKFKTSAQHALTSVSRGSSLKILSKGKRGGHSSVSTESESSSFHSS
Chain of SDF-1 binding domain of CXCR4 (P61073 whole entry, the tested form may be a part): as the sequence (P61073 whole entry) above
Chain of hERG channel (Q12809 whole entry): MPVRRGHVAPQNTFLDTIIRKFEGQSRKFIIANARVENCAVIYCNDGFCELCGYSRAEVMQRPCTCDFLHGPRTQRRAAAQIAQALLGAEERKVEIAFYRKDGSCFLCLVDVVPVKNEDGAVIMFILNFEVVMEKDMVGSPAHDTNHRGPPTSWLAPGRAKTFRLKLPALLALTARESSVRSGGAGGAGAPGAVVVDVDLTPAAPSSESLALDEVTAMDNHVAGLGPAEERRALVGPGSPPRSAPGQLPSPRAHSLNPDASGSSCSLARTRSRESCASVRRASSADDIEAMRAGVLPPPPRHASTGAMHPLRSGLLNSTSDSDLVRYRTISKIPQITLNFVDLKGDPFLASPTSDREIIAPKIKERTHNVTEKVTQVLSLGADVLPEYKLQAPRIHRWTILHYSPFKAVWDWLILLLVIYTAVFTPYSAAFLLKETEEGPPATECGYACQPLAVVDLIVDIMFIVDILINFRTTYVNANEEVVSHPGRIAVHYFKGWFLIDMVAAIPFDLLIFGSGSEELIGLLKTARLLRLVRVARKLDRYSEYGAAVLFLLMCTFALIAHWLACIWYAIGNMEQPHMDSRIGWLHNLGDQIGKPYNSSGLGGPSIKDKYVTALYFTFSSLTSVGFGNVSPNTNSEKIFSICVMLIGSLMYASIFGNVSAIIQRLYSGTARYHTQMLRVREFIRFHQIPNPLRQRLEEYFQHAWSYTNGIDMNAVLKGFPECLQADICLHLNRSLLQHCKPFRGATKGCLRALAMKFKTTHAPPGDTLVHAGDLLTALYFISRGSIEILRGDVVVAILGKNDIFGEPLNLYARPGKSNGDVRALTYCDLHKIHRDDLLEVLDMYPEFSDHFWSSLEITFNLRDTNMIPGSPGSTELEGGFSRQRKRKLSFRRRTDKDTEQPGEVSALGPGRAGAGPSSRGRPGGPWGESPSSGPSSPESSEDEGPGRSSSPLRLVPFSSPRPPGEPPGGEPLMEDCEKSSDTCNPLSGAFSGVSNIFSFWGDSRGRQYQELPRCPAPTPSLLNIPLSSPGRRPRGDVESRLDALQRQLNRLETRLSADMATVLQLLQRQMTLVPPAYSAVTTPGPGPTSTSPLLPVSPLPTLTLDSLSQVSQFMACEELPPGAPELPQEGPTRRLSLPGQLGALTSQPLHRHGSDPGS
Chain of hERG channel (IKr) (Q12809 whole entry): as above

With `c1cc(CN2CCCNCCNCCCNCC2)ccc1CN1CCCNCCNCCCNCC1` [AMD-3100, reference compound], at SDF-1/CXCR4 [1], the “concentration effective in counteracting/blocking SDF-1 function” value is given as ~1000 nM and the “effect of SDF-1 on cAMP reduction” value is reported as “blocked significantly in a dose-dependent manner”.
For `c1cnc(NCc2ccc(CNc3ncccn3)cc2)nc1` [MSX-122, N-(4-((pyrimidin-2-ylamino)methyl)benzyl)-pyrimidin-2-amine], the pEC50 in data set [2] is 9.22. For the same compound, on SDF-1/CXCR4 [1], the “concentration effective in counteracting/blocking SDF-1 function” value amounted to 10 nM and the “effect of SDF-1 on cAMP reduction” value was “blocked significantly in a dose-dependent manner”. Further, in data set [3], the blood levels result is “sustained blood levels”. Besides, the plasma levels result in data set [4] (for 10 hours) was “above 100 ng/ml and > 342 nM”. Besides, in data set [4] (rat, plasma, oral, read-out: initial Tmax (converted)), the time to peak (Tmax) was ~30 min. In addition, in data set [5] (setting [9]), the half lives entry is given as “support once per day dosing” and the plasma concentrations result is “micromolar”. For the same compound, the “pharmacokinetics / dose proportionality of plasma levels” value in data set [5] (female cynomolgus monkeys, oral 1, 5 and 10 mg/kg) is recorded as “sustained pharmacokinetics with plasma levels that were relatively dose proportional”. The mutagenicity entry in the data set “In vitro Ames test” is listed as “no evidence of mutagenicity”. The “structural or numerical chromosome aberrations” value in the data set with CHO cells is given as “no statistically significant increase in structural or numerical chromosome aberrations”. Further, on hERG channel, the “inhibitory effect on hERG channel currents” value is given as “do not exert a significant inhibitory effect”. The inhibition at 1 µM on hERG channel (IKr) is 0.2%. In addition, in data set [6], the “signs or symptoms of toxicity during the study” value is “No signs or symptoms of toxicity” and the “toxicity upon termination from blood serum chemistry or gross necropsy” value was “no toxicity was observed”. In addition, the “plasma concentrations maintained throughout the study” value in data set [6] (after day 1) is listed as “micromolar”. Further, the maximum concentration (Cmax) in data set [6] (both sexes, rat, in vivo, po) is 2000 ng/mL to 4000 ng/mL and 6.8 µM to 13.6 µM. In addition, the peak concentration (Cmax) in data set [7] (both sexes, cynomolgus monkey, in vivo, po, cynomolgus monkeys, 1,000 and 2,000 mg/kg orally once per day for 5 days) is 5.1 µM to 12 µM and 1500 ng/mL to 3500 ng/mL. In addition, in [7] (cynomolgus monkeys dosed at 2000 mg/kg), the gross necropsy entry is reported as “no abnormalities or signs of toxicity”. Besides, in data set [7] (setting [10]), the blood serum chemistry entry is reported as “no abnormalities”, the “plasma concentrations maintained throughout the study” value is listed as “micromolar” and the “signs or symptoms of toxicity” value was “No drug-related signs or symptoms of toxicity”. Besides, in data set [7] (cynomolgus monkeys, 1,000 and 2,000 mg/kg, may have been caused by excipients), the “clinical observations (stool)” value was “loose and watery stool in a subset of the animals”. Also, the hot flashes result in the data set on hot flashes is reported as “resolved greatly”.
In the case of `Cc1ccc(NCc2ccc(CNc3ccc(C)cc3)cc2)cc1` [MSX-139], it took 10 nM to reach half-maximal inhibition on SDF-1/CXCR4 [8] (IC50).
`c1cncc(NCc2ccc(CNc3cccnc3)cc2)c1` [MSX-163]: 10 nM corresponded to half-maximal inhibition on SDF-1/CXCR4 [8] (IC50).
Turning to `c1ccc(NCCc2ccc(CCNc3ccccc3)cc2)cc1` [MSX-170], the concentration for half-maximal inhibition (IC50) against SDF-1/CXCR4 [8] is < 100 nM.
The compound `Cc1c(C)c(CNc2ccccc2)c(C)c(C)c1CNc1ccccc1` [MSX-172] registered an IC50 at SDF-1/CXCR4 [8] of 10 nM.
The same measure, in the same setting: the result for `c1ccc(NCc2ccc(CNc3ccccc3)c3ccccc23)cc1` [MSX-175] reads > 100 nM; that for `Clc1nc(Cl)nc(NCc2ccc(CNc3nc(Cl)nc(Cl)n3)cc2)n1` [MSX-190], 10 nM.
On SDF-1/CXCR4 [8], `COc1ccccc1NCc1ccc(CNc2ccccc2OC)cc1` [MSX-206] returned a concentration for half-maximal inhibition (IC50) of 10 nM.
For the compound `COCc1ccc(CNc2ncccn2)cc1` [MSX-208], the IC50 against SDF-1/CXCR4 [8] was 100 nM.
As to `c1ccc(OCc2ccc(CNc3ncccn3)cc2)cc1` [MSX-209], the IC50 on SDF-1/CXCR4 [8] stood at 10 nM.
`c1ccc(SCc2ccc(CSc3ccccc3)cc2)cc1` [MSX-211] returned a half-inhibitory concentration (IC50) at SDF-1/CXCR4 [8] of 1000 nM.
As for `c1ccc(OCc2ccc(CNc3ncccn3)cc2)nc1` [MSX-212], the IC50 against SDF-1/CXCR4 [8] came out at 100 nM.
Same read-out and setting: in the case of `O=C(O)c1cccc(NCc2ccc(CNc3cccc(C(=O)O)c3)cc2)c1` [MSX-214] it was 100 nM; in that of `Clc1ccc(NCc2ccc(CNc3ncccn3)cc2)nc1` [MSX-219], 10 nM.
As for `N=C(N)NCc1ccc(CNC(=N)N)cc1` [WZ5S], the melting point was 278 to 281 °C (dec.).
The same measure, in the same setting: in the case of `c1ccc(NCCNCc2ccc(CNCCNc3ccccc3)cc2)cc1` [WZ8] it was 42 to 43 °C.
Still for that read-out and setting: the result for `c1ccc(NCc2ccc(CNc3ccccc3)cc2)cc1` [WZ13] reads 126 to 127 °C.
Still for that read-out and setting: the result for `O=C(Nc1ccccc1)c1cc(C(=O)Nc2ccccc2)cc(C(=O)Nc2ccccc2)c1` [WZ20] reads 318 to 320 °C.

One may read the Tmax as the time at which the peak concentration occurs. As a reminder, the inhibition is the share of the control response that was lost under treatment. By Cmax is commonly meant the peak of the concentration-time curve. Broadly, the IC50 is the point on the concentration scale where inhibition reaches its midpoint. The low end stands for higher potency, the high end for lower potency. The melting point is the temperature of the solid-liquid transition.
